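Test compounds were applied to cells in 96-well plates for 48 hours at 5 doses. Abbreviation: GI50, concentration required for 50% inhibition of growth.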 Active and inactive are the calls of the source. Cut-off read from the data, not from the text of the source: active = GI50 up to about 1.1 µM and inactive = higher.
How the values were obtained:
Assay in all cases: NCI anticancer screen, dose series, 48 h
BT-549 = system: BT-549
DU-145 = system: DU-145
EKVX = system: EKVX
HCT-116 = system: HCT-116
HCT-15 = system: HCT-15
K562 = system: K562
LOX IMVI = system: LOX IMVI
M14 = system: M14
MDA-N = system: MDA-N
Malme-3M = system: Malme-3M
OVCAR-3 = system: OVCAR-3
OVCAR-4 = system: OVCAR-4
RPMI-8226 = system: RPMI-8226
RXF 393 = system: RXF 393
SF-295 = system: SF-295
SF-539 = system: SF-539
SK-MEL-28 = system: SK-MEL-28
SNB-19 = system: SNB-19
CCRF-CEM = system: CCRF-CEM

SMILES	GI50 (BT-549)	GI50 (DU-145)	GI50 (EKVX)	GI50 (HCT-116)	GI50 (HCT-15)	GI50 (K562)	GI50 (LOX IMVI)	GI50 (M14)	GI50 (MDA-N)	GI50 (Malme-3M)	GI50 (OVCAR-3)	GI50 (OVCAR-4)	GI50 (RPMI-8226)	GI50 (RXF 393)	GI50 (SF-295)	GI50 (SF-539)	GI50 (SK-MEL-28)	GI50 (SNB-19)	GI50 (CCRF-CEM)
O=C1O[C@]2(c3ccccc3)C(c3ccccc3)=C[C@]2(C(=O)c2ccccc2)C1=O	36.1 µM (inactive)	0.292 µM (active)	34 µM (inactive)	28.6 µM (inactive)	29.5 µM	23 µM (inactive)	28.9 µM (inactive)	32.3 µM (inactive)	31.9 µM (inactive)	65.2 µM (inactive)	32.6 µM (inactive)	39.1 µM (inactive)	25.8 µM (inactive)	0.05 µM (active)	47 µM (inactive)	23 µM (inactive)	35.6 µM (inactive)	36.6 µM (inactive)	–
COC(=O)N1CC(=O)C(C(=O)NC23CC4CC(CC(C4)C2)C3)C1 (stereo not drawn)	66.7 µM (inactive)	76.4 µM (inactive)	–	64.6 µM (inactive)	39.2 µM	55.2 µM (inactive)	–	> 100 µM (inactive)	> 100 µM (inactive)	78.7 µM (inactive)	> 100 µM (inactive)	> 100 µM (inactive)	32.8 µM (inactive)	82 µM (inactive)	56.6 µM (inactive)	72.9 µM (inactive)	66.4 µM (inactive)	> 100 µM (inactive)	42.5 µM (inactive)
COc1nc(C)nc2sc3c(c12)CCCC3	> 100 µM (inactive)	> 100 µM (inactive)	38.4 µM (inactive)	> 100 µM (inactive)	> 100 µM	> 100 µM (inactive)	> 100 µM (inactive)	–	> 100 µM (inactive)	> 100 µM (inactive)	> 100 µM (inactive)	> 100 µM (inactive)	55.3 µM (inactive)	> 100 µM (inactive)	> 100 µM (inactive)	–	> 100 µM (inactive)	> 100 µM (inactive)	–
CCCCCc1cc2cc3c(c(O)c2c(=O)[nH]1)C1(CC3)C(=O)c2c(O)c3c(c(O)c2C1=O)C(=O)C(OC)=CC3=O (stereo not drawn)	1.08 µM (active)	1.05 µM (active)	0.916 µM (active)	0.433 µM (active)	0.388 µM	0.456 µM (active)	0.662 µM (active)	0.893 µM (active)	1.3 µM (inactive)	0.524 µM (active)	0.44 µM (active)	0.822 µM (active)	0.336 µM (active)	0.877 µM (active)	3.01 µM (inactive)	–	2.01 µM (inactive)	1.08 µM (active)	0.0859 µM (active)
CCCCCCCCCCCCOP(=O)(O)OCC(N)C(=O)O (stereo not drawn)	21.2 µM (inactive)	83.4 µM (inactive)	69.8 µM (inactive)	12.1 µM (inactive)	17 µM	29.5 µM (inactive)	20.4 µM (inactive)	68.1 µM (inactive)	21.2 µM (inactive)	> 100 µM (inactive)	17.3 µM (inactive)	39 µM (inactive)	24.7 µM (inactive)	21 µM (inactive)	15.7 µM (inactive)	22.3 µM (inactive)	94.8 µM (inactive)	16.3 µM (inactive)	–
COc1ccc2cc(-c3nc(N)nc(N4N=C(C)CC4(C)C)n3)c(=N)oc2c1	18.6 µM (inactive)	15.8 µM (inactive)	26.2 µM (inactive)	19.1 µM (inactive)	14.8 µM	16.4 µM (inactive)	–	21.5 µM (inactive)	17.1 µM (inactive)	16.5 µM (inactive)	15.2 µM (inactive)	18 µM (inactive)	16 µM (inactive)	23.4 µM (inactive)	18.3 µM (inactive)	16 µM (inactive)	16.9 µM (inactive)	19.3 µM (inactive)	16.1 µM (inactive)
[O-][n+]1c2cccc(O)c2[n+]([O-])c2cccc(O)c21	46 µM (inactive)	> 100 µM (inactive)	23.8 µM (inactive)	21.4 µM (inactive)	46.6 µM	39.2 µM (inactive)	56.8 µM (inactive)	> 100 µM (inactive)	> 100 µM (inactive)	–	29.2 µM (inactive)	42.7 µM (inactive)	18.6 µM (inactive)	60.4 µM (inactive)	57.9 µM (inactive)	32.7 µM (inactive)	–	92 µM (inactive)	5.56 µM (inactive)
O=C1c2ccccc2C(=O)N1CCCCNOCCCN1C(=O)c2ccccc2C1=O	> 100 µM (inactive)	> 100 µM (inactive)	> 100 µM (inactive)	> 100 µM (inactive)	> 100 µM	> 100 µM (inactive)	> 100 µM (inactive)	> 100 µM (inactive)	> 100 µM (inactive)	> 100 µM (inactive)	> 100 µM (inactive)	> 100 µM (inactive)	> 100 µM (inactive)	> 100 µM (inactive)	> 100 µM (inactive)	–	> 100 µM (inactive)	> 100 µM (inactive)	> 100 µM (inactive)
CC(=O)/N=C1/N(/C=C2\C(=O)Oc3ccccc3C2=O)C(=O)/C(=C/c2cccc(Cl)c2Cl)N1C	20.4 µM (inactive)	41.8 µM (inactive)	28.9 µM (inactive)	29.4 µM (inactive)	9.82 µM	10.7 µM (inactive)	24.6 µM (inactive)	14.8 µM (inactive)	42.8 µM (inactive)	33.6 µM (inactive)	1.39 µM (inactive)	–	12.4 µM (inactive)	31.6 µM (inactive)	34.4 µM (inactive)	4.42 µM (inactive)	29 µM (inactive)	–	11.1 µM (inactive)
CCc1nc(N)nc(N)c1-c1ccc(N2CCNCC2)cc1	64 µM (inactive)	62.7 µM (inactive)	> 83 µM (inactive)	35.2 µM (inactive)	54.5 µM	24.2 µM (inactive)	39.7 µM (inactive)	34.9 µM (inactive)	64.7 µM (inactive)	–	> 83.8 µM (inactive)	74.8 µM (inactive)	> 56.1 µM (inactive)	64.9 µM (inactive)	79.6 µM (inactive)	77.3 µM (inactive)	> 78.5 µM (inactive)	47.6 µM (inactive)	33.7 µM (inactive)
O=C(/C=C/c1ccccc1)Oc1ccc(C(=O)/C=C/c2ccc(Cl)cc2)cc1	25.8 µM (inactive)	59.8 µM (inactive)	> 100 µM (inactive)	83.4 µM (inactive)	–	87.3 µM (inactive)	–	> 100 µM (inactive)	37.2 µM (inactive)	> 100 µM (inactive)	> 100 µM (inactive)	–	43.3 µM (inactive)	97.3 µM (inactive)	82.6 µM (inactive)	28 µM (inactive)	> 100 µM (inactive)	46.1 µM (inactive)	17.4 µM (inactive)
CC(C)C[C@H](NC(=O)[C@H](Cc1ccccc1)NC(=O)c1cnccn1)B(O)O [BORTEZOMIB]	< 0.01 µM (active)	< 0.01 µM (active)	< 0.01 µM (active)	< 0.01 µM (active)	< 0.01 µM	< 0.01 µM (active)	0.01 µM (active)	< 0.01 µM (active)	< 0.01 µM (active)	< 0.01 µM (active)	< 0.01 µM (active)	< 0.01 µM (active)	0.01 µM (active)	< 0.01 µM (active)	< 0.01 µM (active)	< 0.01 µM (active)	< 0.01 µM (active)	–	–

Reference: ChEMBL document CHEMBL1201862, “PubChem BioAssay data set” (2004)
